From patent US11149021B2, “N-(azaaryl)cyclolactam-1-carboxamide derivative, preparation method therefor, and use thereof” (Abbisko Therapeutics Co., Ltd., priority 2017, dated 2021) come the findings set out here.

In one test the target is T1, CSF-1R (Homo sapiens, UniProt P07333).
T1 construct: 3.95 nM of CSF-1R, 500 μM of ATP
In words: CSF-1R in vitro biochemical kinase study (ADP-Glo assay). (In general: ADP-Glo first removes unused ATP, then detects ADP through luciferase.)

In test [1] the test system is M-NFS-60 mouse myeloid leukemia lymphocytes. In words: CSF-1R cell proliferation study (Cell Titer Glo).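 Note: M-CSF-driven proliferation, viable cells quantified as ATP by luminescence, compounds tested as 3-fold serial dilutions, values from four-parameter curve fits.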 The note with it: Lymphocyte, 72 h. The format is cell-based. (ATP-based viability assays read luminescence as a measure of living cells.)
Description: Functional effects of compounds on cell proliferation were evaluated by using Cell Titer Glo (CTG) study in the present invention. […] Since ATP is an index for viable cell metabolism, CTG (Promega, #G7573) reagent is a homogeneous detection method for detecting the number of viable cells in the culture by quantifying ATP. Therefore, compound-mediated inhibition for cell proliferation/survival was evaluated by quantifying ATP content in cells, and the specific experimental process was as follows:
3. 10 μL of culture medium containing M-CSF with 10-fold of the final concentration was then added to each well;
4. dosage effect was evaluated by testing the 3-fold serial dilutions of the compound;
5. after the cells were incubated for 3 days at 37° C. and 5% CO2, the inhibition on cell survival was quantified after 50 μL of CTG was added and the luminescence assay was performed;
6. the compound concentration leading to half maximal inhibitory (IC50) and the compound concentration leading to absolute half maximal inhibitory (Absolute IC50) was measured by a plate reader (M1000, Tecan) and a four-parameter curve fit in Graphpad Prism 7.
In test [2] the test system is M-07e human cytomegalic leukemia cells. Briefly: CSF-1R-related cell proliferation experiment, KIT (Cell Titer Glo). The format is cell-based. The note with it: 72 h, read-out: Cytological experiment KIT IC50 (nM).
Description: (§4) Functional effects of compounds on the proliferation of several cell lines were evaluated by Cell Titer Glo (CTG) studies in the present invention, and effects of the compounds on the proliferation of different cells were evaluated to determine the selectivity of the compounds. […] No. CBP60115) were cultured in an incubator under conditions of RPM11640 (Gibco, cat. […] No. CBP60522) were cultured in an incubator under conditions of IMDM (Invitrogen, cat. […] Since ATP is an index for viable cell metabolism, CTG (Promega, #G7573) reagent is a homogeneous detection method for detecting the number of viable cells in the culture by quantifying ATP. Therefore, compound-mediated inhibition for cell proliferation/survival was evaluated by quantifying ATP content in cells, and the specific experimental process was as follows.
In test [3] the test system is MV-4-11 human acute monocytic leukemia cells. Briefly: CSF-1R-related cell proliferation experiment, FLT3 (Cell Titer Glo). To be noted: MV4-11, 72 h, read-out: Cytological experiment FLT3 IC50 (nM). The format is cell-based.
Description: as §4
Test [4] has as its system NCI-H1703 human non-small cell lung squamous carcinoma cells. In words: CSF-1R-related cell proliferation experiment, PDGFRA (Cell Titer Glo). Format: cell-based. The note with it: NCI-H1703, 72 h, read-out: Cytological experiment PDGERA IC50 (nM).
Description: as §4
A further test concerns the target KIT (Homo sapiens, UniProt P10721). Briefly: KIT in vitro biochemical kinase study (Caliper EZ Reader). The note with it: * = average of multiple tests; read-out: Enzymatic experiment KIT IC50. On the procedure:
(§1) 8. the compound IC50 value was measured by using a plate reader (Tecan, M1000) and a four-parameter curve was generated in Graphpad Prism. The enzymatic activities of compounds in the specific embodiments are shown in Table 1. • B. KIT/PDGFRA in vitro biochemical kinase study • 1. Preparation of 1-fold kinase buffer and stop solution • 1.1. 1-fold kinase buffer: 50 mM HEPES, pH 7.5, 0.0015% Brij-35. • 1.2 stop solution: 100 mM HEPES, pH 7.5, 0.015% Brij-35, 0.2% Coating Reagent #3, 50 mM EDTA • 2 Preparation of compound solution • 2.1 Dilution of compound solution • 1) The final concentration of the compound solution was 40 μM, and the concentration of the prepared stock solution was 50 times of the final concentration, i.e., 2 mM. • 2) 80 μL of 100% DMSO was added to the second well of a 96-well plate, and then 20 μL of 10 mM compound solution was added to obtain 2 mM compound solution. 60 μL of 100% DMSO was added to other wells. 20 μL solution was taken from the second well and added to the third well, which was diluted by 4 times. This serial 4-time dilution was conducted in sequence for the total of 10 concentration. • 2.2 5-fold compound solution transferred to a reaction plate • 1) 10 μL solution was taken from each well of the above 96-well plate and added to another 96-well plate, and 90 µl of kinase buffer was added in each well of new plate. • 2) 5 μL solution was taken from the above 96-well plate and added to a 384-well reaction plate. • 2.3 Kinase reaction • 1) KIT/PDGFRA kinase was added to the 1-fold kinase buffer solution to obtain a 2.5-fold kinase solution. • 2) FAM-labeled polypeptide and ATP were added to the 1-fold kinase buffer solution to obtain a 2.5-fold substrate solution. • 3) 10 μL of 2.5-fold kinase solution was added to the 384-well reaction plate, which already contained 5 μL of 5-fold compound in 10% DMSO. […] Percent inhibition=(max-conversion)/(max-min)×100
(§2) 3) The IC50 value was fit with XLFit excel add-in version 5.4.0,8: Fitting formula: Y=Bottom+(Top-Bottom)/(1+(IC50/X)^HillSlope).
(§3) CSF-1R cell proliferation study

The target of another test is PDGFRA (Homo sapiens, UniProt P16234). In words: PDGFRA in vitro biochemical kinase study (Caliper EZ Reader). To be noted: * = average of multiple tests; read-out: Enzymatic experiment PDGFRA IC50. On the procedure:
as §1, §2, §3

The mark [5] stands for this setting: read-out: Cytological experiment CS1-1R Absolute IC50 (nM).
Where [6] appears, read: read-out: Cytological experiment CSF-1R IC50 (nM).

SMILES strings stand for the structures. Read-outs that look alike come from different tables or passages of the source.

T1 sequence (P07333 20-972): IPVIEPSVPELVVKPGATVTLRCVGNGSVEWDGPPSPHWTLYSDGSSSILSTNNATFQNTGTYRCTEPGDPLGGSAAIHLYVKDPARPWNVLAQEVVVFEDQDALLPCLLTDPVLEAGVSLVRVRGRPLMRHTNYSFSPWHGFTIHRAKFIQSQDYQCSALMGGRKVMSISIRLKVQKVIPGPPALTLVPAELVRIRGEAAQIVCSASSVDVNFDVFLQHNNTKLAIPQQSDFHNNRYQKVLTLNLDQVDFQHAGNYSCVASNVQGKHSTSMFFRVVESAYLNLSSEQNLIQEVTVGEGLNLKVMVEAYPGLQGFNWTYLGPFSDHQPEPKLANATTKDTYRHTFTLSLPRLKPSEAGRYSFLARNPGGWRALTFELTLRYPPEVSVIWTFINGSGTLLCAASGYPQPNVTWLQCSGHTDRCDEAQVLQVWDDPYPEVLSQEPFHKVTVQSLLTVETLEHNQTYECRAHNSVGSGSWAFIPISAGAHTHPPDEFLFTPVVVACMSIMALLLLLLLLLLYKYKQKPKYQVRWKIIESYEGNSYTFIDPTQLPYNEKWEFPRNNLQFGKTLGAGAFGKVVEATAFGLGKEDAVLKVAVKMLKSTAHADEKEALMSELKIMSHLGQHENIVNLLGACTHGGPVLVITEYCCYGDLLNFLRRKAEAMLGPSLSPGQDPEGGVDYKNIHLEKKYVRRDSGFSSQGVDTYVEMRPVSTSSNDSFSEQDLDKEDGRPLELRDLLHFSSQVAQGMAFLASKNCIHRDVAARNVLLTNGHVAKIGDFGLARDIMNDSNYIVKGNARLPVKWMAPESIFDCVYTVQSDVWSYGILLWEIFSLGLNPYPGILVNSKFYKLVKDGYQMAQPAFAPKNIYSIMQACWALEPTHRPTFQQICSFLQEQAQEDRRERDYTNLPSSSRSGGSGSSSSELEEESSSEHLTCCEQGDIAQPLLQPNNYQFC
Chain of PDGFRA (P16234 24-1089): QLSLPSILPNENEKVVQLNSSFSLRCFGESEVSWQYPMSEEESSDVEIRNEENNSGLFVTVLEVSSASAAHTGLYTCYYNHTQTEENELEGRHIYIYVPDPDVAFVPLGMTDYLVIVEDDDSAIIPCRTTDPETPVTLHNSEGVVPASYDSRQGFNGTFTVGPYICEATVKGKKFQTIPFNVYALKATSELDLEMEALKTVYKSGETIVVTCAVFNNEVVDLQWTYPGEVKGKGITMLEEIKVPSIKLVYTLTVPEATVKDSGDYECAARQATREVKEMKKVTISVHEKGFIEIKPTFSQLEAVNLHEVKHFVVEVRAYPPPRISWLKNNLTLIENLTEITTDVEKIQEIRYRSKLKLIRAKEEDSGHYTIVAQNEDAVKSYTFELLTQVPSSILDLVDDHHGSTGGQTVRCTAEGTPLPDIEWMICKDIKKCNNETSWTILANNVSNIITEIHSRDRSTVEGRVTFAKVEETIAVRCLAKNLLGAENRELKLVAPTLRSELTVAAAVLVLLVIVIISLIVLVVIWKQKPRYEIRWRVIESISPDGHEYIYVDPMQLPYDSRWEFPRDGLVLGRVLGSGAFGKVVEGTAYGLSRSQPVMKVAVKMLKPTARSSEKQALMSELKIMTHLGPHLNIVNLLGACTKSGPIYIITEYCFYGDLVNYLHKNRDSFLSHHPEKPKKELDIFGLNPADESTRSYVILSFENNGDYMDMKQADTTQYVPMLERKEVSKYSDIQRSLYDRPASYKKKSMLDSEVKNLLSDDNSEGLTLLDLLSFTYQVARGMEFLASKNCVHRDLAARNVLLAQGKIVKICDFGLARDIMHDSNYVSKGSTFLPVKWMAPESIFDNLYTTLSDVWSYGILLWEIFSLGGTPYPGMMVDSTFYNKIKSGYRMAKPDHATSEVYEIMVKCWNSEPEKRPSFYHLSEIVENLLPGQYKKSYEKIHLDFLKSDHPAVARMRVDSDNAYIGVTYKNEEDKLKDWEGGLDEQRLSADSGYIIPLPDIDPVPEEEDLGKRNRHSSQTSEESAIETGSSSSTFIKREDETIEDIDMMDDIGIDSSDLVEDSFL
Chain of KIT (P10721 26-976): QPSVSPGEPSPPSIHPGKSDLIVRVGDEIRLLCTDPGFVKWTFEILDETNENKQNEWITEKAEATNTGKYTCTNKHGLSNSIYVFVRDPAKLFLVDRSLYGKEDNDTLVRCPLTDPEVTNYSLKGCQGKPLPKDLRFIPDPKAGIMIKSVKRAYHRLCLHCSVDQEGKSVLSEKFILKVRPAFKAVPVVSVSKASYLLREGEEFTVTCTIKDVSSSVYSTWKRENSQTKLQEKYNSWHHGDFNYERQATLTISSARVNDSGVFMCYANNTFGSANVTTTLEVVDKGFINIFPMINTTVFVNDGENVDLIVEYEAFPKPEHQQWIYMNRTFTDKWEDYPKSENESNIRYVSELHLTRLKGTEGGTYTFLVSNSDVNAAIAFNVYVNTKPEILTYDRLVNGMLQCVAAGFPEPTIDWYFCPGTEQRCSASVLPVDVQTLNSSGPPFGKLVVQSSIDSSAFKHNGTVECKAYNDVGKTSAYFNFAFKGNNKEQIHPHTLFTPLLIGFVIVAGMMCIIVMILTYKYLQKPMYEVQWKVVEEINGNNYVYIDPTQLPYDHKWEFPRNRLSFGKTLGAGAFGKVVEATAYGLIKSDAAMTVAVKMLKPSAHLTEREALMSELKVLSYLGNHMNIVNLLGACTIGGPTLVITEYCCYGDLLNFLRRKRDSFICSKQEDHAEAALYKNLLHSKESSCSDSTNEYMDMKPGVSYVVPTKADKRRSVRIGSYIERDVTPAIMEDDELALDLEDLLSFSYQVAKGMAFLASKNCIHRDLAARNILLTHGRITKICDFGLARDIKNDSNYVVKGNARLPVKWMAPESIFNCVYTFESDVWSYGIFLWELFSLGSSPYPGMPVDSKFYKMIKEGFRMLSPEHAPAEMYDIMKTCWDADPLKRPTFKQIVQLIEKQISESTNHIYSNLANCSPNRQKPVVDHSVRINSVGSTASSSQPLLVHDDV

Consider `CCC1(CC)CCN(C(=O)Nc2ccc(Oc3ccnc(-c4cnn(C)c4)c3)c(C)n2)C1=O` [Example 34, 3,3-diethyl-N-(6-methyl-5-((2-(1-methyl-1H-pyrazol-4-yl)pyridin-4-yl)oxy)pyridin-2-yl)-2-oxopyrrolidine-1-carboxamide], for which the IC50 was 0.0517 µM against CSF-1R; 21.5 nM in test [1] (setting [5]); 21.3 nM in test [1] (setting [6]); 667 nM in test [2]; over 2000 nM in test [3]; 1330 nM in test [4].

Turning to `Cc1nc(NC(=O)N2CCC(C)(C)C2=O)ccc1Oc1ccnc(-c2cnn(C)c2)c1` [Example 1, 3,3-dimethyl-N-(6-methyl-5-((2-(1-methyl-1H-pyrazol-4-yl)pyridin-4-yl)oxy)pyridin-2-yl)-2-oxopyrrolidine-1-carboxamide], the half-inhibitory concentration (IC50) at CSF-1R worked out at 0.0195 µM; at KIT, 0.077 µM; at PDGFRA it was 1.4 µM; in test [1] (setting [5]) it was 24.1 nM; in test [1] (setting [6]), 25 nM; in test [2] it was 1060 nM. Moreover, the results for the IC50 in test [3] and in test [4] were 5560 nM and 2870 nM, respectively.

`Cc1nc(NC(=O)N2CCC(C)(C)C2=O)ccc1Oc1ccnc(-c2cnn(CCO)c2)c1` [Example 10, N-(5-((2-(1-(2-hydroxyethyl)-1H-pyrazol-4-yl)pyridin-4-yl)oxy)-6-methylpyridin-2-yl)-3,3-dimethyl-2-oxopyrrolidine-1-carboxamide]: the IC50 came to 0.0563 µM against CSF-1R; 0.476 µM on KIT; 13.1 µM at PDGFRA; 140 nM in test [1] (setting [5]); 104 nM in test [1] (setting [6]); 4900 nM in test [2]. Besides, the IC50 stood at 18000 nM in test [3] and 6000 nM in test [4].

Turning to `Cc1nc(NC(=O)N2CCC3(CCCC3)C2=O)ccc1Oc1ccnc(-c2cnn(C)c2)c1` [Example 31, N-(6-methyl-5-((2-(1-methyl-1H-pyrazol-4-yl)pyridin-4-yl)oxy)pyridin-2-yl)-1-oxo-2-azaspiro[4.4]nonane-2-carboxamide], the IC50 was found to be 0.00845 µM against CSF-1R; 19.4 nM in test [1] (setting [5]); 19.2 nM in test [1] (setting [6]); 190 nM in test [2]; 2980 nM in test [3]; 561 nM in test [4].

Consider `Cc1nc(NC(=O)N2CCC(C)(C)C2=O)ccc1Cc1ccnc(-c2cnn(C)c2)c1` [Example 21, 3,3-dimethyl-N-(6-methyl-5-((2-(1-methyl-1H-pyrazol-4-yl)pyridin-4-yl)methyl)pyridin-2-yl)-2-oxopyrrolidine-1-carboxamide], for which the IC50 on CSF-1R was 0.0599 µM; in test [1] (setting [5]), 31.2 nM; in test [1] (setting [6]) it was 45.2 nM; in test [2], 727 nM; in test [3] it was over 2000 nM; in test [4], over 6000 nM.

As for `Cc1nc(NC(=O)N2CCC(C)(O)C2=O)ccc1Oc1ccnc(-c2cnn(C)c2)c1` (stereo not shown) [Example 41, 3-hydroxy-3-methyl-N-(6-methyl-5-((2-(1-methyl-1H-pyrazol-4-yl)pyridin-4-yl)oxy)pyridin-2-yl)-2-oxopyrrolidine-1-carboxamide], the half-maximal inhibitory concentration (IC50) is 0.445 µM against CSF-1R; over 2000 nM in test [1] (setting [5]); over 2000 nM in test [1] (setting [6]); over 18000 nM in test [2]; over 18000 nM in test [3]; over 18000 nM in test [4].

In the case of `CCC1(C)CCN(C(=O)Nc2ccc(Oc3ccnc(-c4cnn(C)c4)c3)c(C)n2)C1=O` (stereo not shown) [Example 33, 3-ethyl-3-methyl-N-(6-methyl-5-((2-(1-methyl-1H-pyrazol-4-yl)pyridin-4-yl)oxy)pyridin-2-yl)-2-oxopyrrolidine-1-carboxamide], the IC50 was 0.0199 µM at CSF-1R; 40.3 nM in test [1] (setting [5]); 41.9 nM in test [1] (setting [6]); 535 nM in test [2]; over 6000 nM in test [3]; over 6000 nM in test [4].

`CCc1nc(NC(=O)N2CCC(C)(C)C2=O)ccc1Oc1ccnc(-c2cnn(C)c2)c1` [Example 3, N-(6-ethyl-5-((2-(1-methyl-1H-pyrazol-4-yl)pyridin-4-yl)oxy)pyridin-2-yl)-3,3-dimethyl-2-oxopyrrolidine-1-carboxamide]: the IC50 is 0.229 µM on CSF-1R, 687 nM in test [1] (setting [5]) and 667 nM in test [1] (setting [6]).

As to `Cc1nc(NC(=O)N2CCC(C)(C)C2=O)ccc1Oc1ccnc(-c2cnn(C3CC3)c2)c1` [Example 15, N-(5-((2-(1-cyclopropyl-1H-pyrazol-4-yl)pyridin-4-yl)oxy)-6-methylpyridin-2-yl)-3,3-dimethyl-2-oxopyrrolidine-1-carboxamide], the IC50 against CSF-1R was 0.0207 µM; in test [1] (setting [5]) it was 38.7 nM; in test [1] (setting [6]) it was 64.4 nM; in test [2] it was over 1120 nM; in test [3], over 6000 nM; in test [4], over 6000 nM.

Consider `COCCn1cc(-c2cc(Oc3ccc(NC(=O)N4CCC(C)(C)C4=O)nc3C)ccn2)cn1` [Example 7, N-(5-((2-(1-(2-methoxyethyl)-1H-pyrazol-4-yl)pyridin-4-yl)oxy)-6-methylpyridin-2-yl)-3,3-dimethyl-2-oxopyrrolidine-1-carboxamide], for which the IC50 is 0.0725 µM on CSF-1R, 203 nM in test [1] (setting [5]) and 222 nM in test [1] (setting [6]).

In the case of `Cc1nc(NC(=O)N2CCC(C)(C)C2=O)ccc1Oc1ccnc(NC(=O)C2CC2)c1` [Example 26, N-(5-((2-(cyclopropane-carboxamido)pyridin-4-yl)oxy)-6-methylpyridin-2-yl)-3,3-dimethyl-2-oxopyrrolidine-1-carboxamide], the half-inhibitory concentration (IC50) was 0.0752 µM against CSF-1R, 157 nM in test [1] (setting [5]) and 161 nM in test [1] (setting [6]).

Regarding `Cc1cc(-c2cc(Oc3ccc(NC(=O)N4CCC(C)(C)C4=O)nc3C)ccn2)ccn1` [Example 4, 3,3-dimethyl-N-(6-methyl-5-((2′-methyl-[2,4′-bipyridin]-4-yl)oxy)pyridin-2-yl)-2-oxopyrrolidine-1-carboxamide], the IC50 came to 0.0429 µM at CSF-1R, 213 nM in test [1] (setting [5]) and 216 nM in test [1] (setting [6]).

Consider `Cc1nc(NC(=O)N2CCC(C)(C)C2=O)ccc1Oc1ccnc(-c2cn[nH]c2)c1` [Example 9, N-(5-((2-(1H-pyrazol-4-yl)pyridin-4-yl)oxy)-6-methylpyridin-2-yl)-3,3-dimethyl-2-oxopyrrolidine-1-carboxamide], for which the results for the IC50 (against CSF-1R; in test [1] (setting [5]); in test [1] (setting [6])) were 0.0802 µM, 193 nM and 216 nM, respectively.

As for `Cc1nc(NC(=O)N2CCC(C)(C)C2=O)ccc1Oc1ccnc(-c2cnn(C(C)C)c2)c1` [Example 13, N-(5-((2-(1-isopropyl-1H-pyrazol-4-yl)pyridin-4-yl)oxy)-6-methylpyridin-2-yl)-3,3-dimethyl-2-oxopyrrolidine-1-carboxamide], the IC50 at CSF-1R worked out at 0.0997 µM; in test [1] (setting [5]) it was 245 nM; in test [1] (setting [6]) it was 263 nM.

With `Cc1nc(NC(=O)N2CCC(C)(C)C2=O)ccc1Oc1ccnc(NC(=O)N2CCN(C)CC2)c1` [Example 24, N-(4-((6-(3,3-dimethyl-2-oxopyrrolidine-1-carboxamido)-2-methylpyridin-3-yl)oxy)pyridin-2-yl)-4-methylpiperazine-1-carboxamide], the IC50 stood at 0.0566 µM on CSF-1R, 164 nM in test [1] (setting [5]) and 221 nM in test [1] (setting [6]).

As to `[2H]C([2H])([2H])n1cc(-c2cc(Oc3ccc(NC(=O)N4CCC(C)(C)C4=O)nc3C)ccn2)cn1` [Example 11, 3,3-dimethyl-N-(6-methyl-5-((2-(1-(methyl-d3)-1H-pyrazol-4-yl)pyridin-4-yl)oxy)pyridin-2-yl)-2-oxopyrrolidine-1-carboxamide], the IC50 at CSF-1R is 0.0214 µM; in test [1] (setting [5]), 35.5 nM; in test [1] (setting [6]) it was 43.5 nM; in test [2], over 1120 nM; in test [3] it was over 6000 nM; in test [4], over 2000 nM.

As usually defined, the IC50 is the concentration needed to halve the response being measured.
